Like-named read-outs stand apart in the source and are kept apart here.
Target: human GABA A receptor α5β3γ2 (Homo sapiens (Human), UniProt P18507+P31644)
Experiment: [3H]flumazenil competition binding assay, human GABA A α5β3γ2 receptors expressed in HEK293 cells
In short: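 Ki values, each the mean of two runs, derive from displacement of [3H]flumazenil from human α5β3γ2 GABA A receptors transiently expressed in HEK293 membranes. Binding ran 1 h at 4° C in Krebs-tris, pH 7.5, before filter harvest and scintillation counting.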

[1] = human receptor, displacement of [3H]flumazenil (0.5 nM), means of two determinations, read-out: hKi GABAAa5

Row | Ki [1] [nM] | Structure (SMILES) | Ki [nM]
1 | 2 | Cc1onc(-c2ccccc2)c1COc1ccc(C(=O)NCC(O)CO)cn1 (stereo not shown) [Example 218, N-(2,3-Dihydroxy-propyl)-6-(5-methyl-3-phenyl-isoxazol-4-ylmethoxy)-nicotinamide] | 
2 | 3.3 | Cc1onc(-c2ccc(F)c(F)c2)c1COc1ccc(C(=O)NCC(C)(C)CO)cn1 [Example 268, 6-[3-(3,4-Difluoro-phenyl)-5-methyl-isoxazol-4-ylmethoxy]-N-(3-hydroxy-2,2-dimethyl-propyl)-nicotinamide] | 
3 |  | Cc1onc(-c2ccc(F)cc2)c1COc1ccc(C(=O)N2C[C@H]3C[C@@H](C2)O3)cn1 [Example 114, {6-[3-(4-Fluoro-phenyl)-5-methyl-isoxazol-4-ylmethoxy]-pyridin-3-yl}-(1R,5S)-6-oxa-3-aza-bicyclo [3.1.1]hept-3-yl-methanone] | 42.6
4 | 22.9 | CC(C)(CO)CNC(=O)c1ccc(OCc2conc2-c2ccc(Cl)cc2)nc1 [Example 350, 6-[3-(4-Chloro-phenyl)-isoxazol-4-ylmethoxy]-N-(3-hydroxy-2,2-dimethyl-propyl)-nicotinamide] | 
5 | 11.8 | Cc1onc(-c2ccccc2)c1COc1ccc(C(=O)NC(C)(C)C)cn1 [Example 47, N-tert-Butyl-6-(5-methyl-3-phenyl-isoxazol-4-ylmethoxy)-nicotinamide] | 
6 | 47.7 | COC(=O)[C@H](Cc1ccccc1)NC(=O)c1ccc(OCc2c(-c3ccccc3)noc2C)nc1 [Example 229, (S)-2-{[6-(5-Methyl-3-phenyl-isoxazol-4-ylmethoxy)-pyridine-3-carbonyl]-amino}-3-phenyl-propionic acid methyl ester] | 
7 | 80.8 | Cc1onc(-c2ccccc2)c1COc1ccc(C(=O)N2CCOCC2(C)C)cn1 [Example 71, (3,3-Dimethyl-morpholin-4-yl)-[6-(5-methyl-3-phenyl-isoxazol-4-ylmethoxy)-pyridin-3-yl]-methanone] | 
8 | 37.3 | Cc1onc(-c2ccccc2)c1COc1ccc(C(=O)N2CCSC2)cn1 [Example 242, [6-(5-Methyl-3-phenyl-isoxazol-4-ylmethoxy)-pyridin-3-yl]-thiazolidin-3-yl-methanone] | 
9 | 19.3 | CCOC(=O)c1ccc(OCc2c(-c3ccccc3)noc2C)nc1C [Example 72, 2-Methyl-6-(5-methyl-3-phenyl-isoxazol-4-ylmethoxy)-nicotinic acid ethyl ester] | 
10 | 15.4 | Cc1onc(-c2cccc(F)c2)c1CNc1ccc(C(=O)NC(C)C)cn1 [Example 169, 6-{[3-(3-Fluoro-phenyl)-5-methyl-isoxazol-4-ylmethyl]-amino}-N-isopropyl-nicotinamide] | 
11 | 1.3 | Cc1onc(-c2ccc(Cl)cc2)c1COc1ccc(C(=O)N[C@@H](C)C(F)(F)F)cn1 [Example 258, 6-[3-(4-Chloro-phenyl)-5-methyl-isoxazol-4-ylmethoxy]-N—((S)-2,2,2-trifluoro-1-methyl-ethyl)-nicotinamide] | 
12 | 31.1 | Cc1onc(-c2ccccc2)c1COc1ccc(Br)cn1 [Example 3, 5-Bromo-2-(5-methyl-3-phenyl-isoxazol-4-ylmethoxy)-pyridine] | 
13 | 12.9 | O=C(NC1CC1)c1ccc(OCc2conc2-c2ccc(F)cc2)nc1 [Example 329, N-Cyclopropyl-6-[3-(4-fluoro-phenyl)-isoxazol-4-ylmethoxy]-nicotinamide] | 
14 | 41.3 | Cc1onc(-c2cccc(F)c2)c1COc1ccc(C(=O)NC2CC2)cn1 [Example 92, N-Cyclopropyl-6-[3-(3-fluoro-phenyl)-5-methyl-isoxazol-4-ylmethoxy]-nicotinamide] | 
15 | 1.6 | Cc1onc(-c2ccccn2)c1COc1ccc(C(=O)NC2CC2)cn1 [Example 278, N-Cyclopropyl-6-(5-methyl-3-pyridin-2-yl-isoxazol-4-ylmethoxy)-nicotinamide] | 
16 | 1 | Cc1ccc(-c2noc(C)c2COc2ccc(C(=O)NC(C)C)cn2)cc1 [Example 252, N-Isopropyl-6-(5-methyl-3-p-tolyl-isoxazol-4-ylmethoxy)-nicotinamide] | 
17 | 0.8 | Cc1ccc(-c2noc(C)c2COc2ccc(C(=O)NC(C)C)cn2)c(F)c1 [Example 253, 6-[3-(2-Fluoro-4-methyl-phenyl)-5-methyl-isoxazol-4-ylmethoxy]-N-isopropyl-nicotinamide] | 
18 | 12.1 | Cc1onc(-c2ccccc2)c1COc1ccc(C(=O)Nc2ccc(F)cc2)cn1 [Example 49, N-(4-Fluoro-phenyl)-6-(5-methyl-3-phenyl-isoxazol-4-ylmethoxy)-nicotinamide] | 
19 | 18.6 | Cc1onc(-c2ccccc2)c1COc1ncc(C(=O)NC(C)C)cc1Br [Example 68, 5-Bromo-N-isopropyl-6-(5-methyl-3-phenyl-isoxazol-4-ylmethoxy)-nicotinamide] | 
20 | 6.8 | Cc1onc(-c2ccccn2)c1COc1ccc(C(=O)N2CCSCC2)cn1 [Example 282, [6-(5-Methyl-3-pyridin-2-yl-isoxazol-4-ylmethoxy)-pyridin-3-yl]-thiomorpholin-4-yl-methanone] | 
21 | 0.8 | Cc1onc(-c2ccc(Cl)cc2)c1COc1ccc(C(=O)NC2CCOCC2)cn1 [Example 121, 6-[3-(4-Chloro-phenyl)-5-methyl-isoxazol-4-ylmethoxy]-N-(tetrahydro-pyran-4-yl)-nicotinamide] | 
22 | 2.5 | Cc1onc(-c2ccccc2)c1COc1ccc(C(=O)NC[C@@H](C)O)cn1 (racemic) [Example 14, (R,S)—N-(2-Hydroxy-propyl)-6-(5-methyl-3-phenyl-isoxazol-4-ylmethoxy)-nicotinamide] | 
23 | 3.9 | Cc1onc(-c2ccccc2)c1COc1ccc(C(=O)NCC2CC2)cn1 [Example 16, N-Cyclopropylmethyl-6-(5-methyl-3-phenyl-isoxazol-4-ylmethoxy)-nicotinamide] | 
24 | 36.5 | Cc1onc(-c2ccccc2)c1COc1ccccn1 [Example 1, 2-(5-Methyl-3-phenyl-isoxazol-4-ylmethoxy)-pyridine] | 
25 | 5.6 | CC(C)NC(=O)c1ccc(OCc2conc2-c2ccc(Cl)cc2)nc1 [Example 344, 6-[3-(4-Chloro-phenyl)-isoxazol-4-ylmethoxy]-N-isopropyl-nicotinamide] | 
26 | ~20 | C[C@H](NC(=O)c1ccc(OCc2conc2-c2ccc(Cl)cc2)nc1)C(F)(F)F [Example 357, 6-[3-(4-Chloro-phenyl)-isoxazol-4-ylmethoxy]-N—((S)-2,2,2-trifluoro-1-methyl-ethyl)-nicotinamide] | 
27 | 3.6 | Cc1onc(-c2ccccc2)c1COc1ccc(C(=O)NC2(C)CC2)cn1 [Example 239, N-(1-Methyl-cyclopropyl)-6-(5-methyl-3-phenyl-isoxazol-4-ylmethoxy)-nicotinamide] | 
28 | 12.5 | O=C(NC1CCOCC1)c1ccc(OCc2c(-c3ccc(F)cc3)noc2C(F)(F)F)nc1 [Example 144, 6-[3-(4-Fluoro-phenyl)-5-trifluoromethyl-isoxazol-4-ylmethoxy]-N-(tetrahydro-pyran-4-yl)-nicotinamide] | 

Row | Structure (SMILES) | Ki [1] [nM] | Ki [nM]
29 | Cc1onc(-c2ccc(Cl)cn2)c1COc1ccc(C(=O)NC2CCOCC2)cn1 [Example 301, 6-[3-(5-Chloro-pyridin-2-yl)-5-methyl-isoxazol-4-ylmethoxy]-(tetrahydro-pyran-4-yl)-nicotinamide] | 0.3 | 
30 | CNC(=O)c1ccc(OCc2c(-c3ccccn3)noc2C)nc1 [Example 279, Methyl-6-(5-methyl-3-pyridin-2-yl-isoxazol-4-ylmethoxy)-nicotinamide] | 1.3 | 
31 | CCNC(=O)c1ccc(OCc2conc2-c2ccc(F)cn2)nc1 [Example 371, Ethyl-6-[3-(5-fluoro-pyridin-2-yl)-isoxazol-4-ylmethoxy]-nicotinamide] | 14.1 | 
32 | Cc1onc(-c2ccc(Cl)cc2)c1COc1ccc(C(=O)NC(C)C)cn1 [Example 119, 6-[3-(4-Chloro-phenyl)-5-methyl-isoxazol-4-ylmethoxy]-N-isopropyl-nicotinamide] | 0.7 | 
33 | Cc1onc(-c2ccccc2)c1COc1ccc(C(=O)N[C@H](CO)CC(C)C)cn1 [Example 207, N—((S)-1-Hydroxymethyl-3-methyl-butyl)-6-(5-methyl-3-phenyl-isoxazol-4-ylmethoxy)-nicotinamide] | 10.9 | 
34 | CC(CO)NC(=O)c1ccc(OCc2conc2-c2ccc(F)cc2)nc1 (stereo not shown) [Example 325, 6-[3-(4-Fluoro-phenyl)-isoxazol-4-ylmethoxy]-N-(2-hydroxy-1-methyl-ethyl)-nicotinamide] | 9 | 
35 | Cc1onc(-c2ccccc2)c1COc1ccc(C(=O)N[C@@H](Cc2ccccc2)C(=O)O)cn1 [Example 231, (S)-2-{[6-(5-Methyl-3-phenyl-isoxazol-4-ylmethoxy)-pyridine-3-carbonyl]-amino}-3-phenyl-propionic acid] | 28 | 
36 | Cc1onc(-c2ccccc2)c1COc1ccc(C(=O)N2CCC(O)CC2)cn1 [Example 187, (4-Hydroxy-piperidin-1-yl)-[6-(5-methyl-3-phenyl-isoxazol-4-ylmethoxy)-pyridin-3-yl]-methanone] | 73.4 | 
37 | Cc1onc(-c2ccccc2)c1COc1ccc(C(=O)n2ccc(=O)[nH]2)cn1 [Example 238, 1-[6-(5-Methyl-3-phenyl-isoxazol-4-ylmethoxy)-pyridine-3-carbonyl]-1,2-dihydro-pyrazol-3-one] | 34.9 | 
38 | C[C@@H](CO)NC(=O)c1ccc(OCc2conc2-c2ccc(F)cc2)nc1 [Example 327, 6-[3-(4-Fluoro-phenyl)-isoxazol-4-ylmethoxy]-N—((S)-2-hydroxy-1-methyl-ethyl)-nicotinamide] | 13.9 | 
39 | Cc1onc(-c2ccccc2)c1COc1ccc(C(=O)N[C@H]2CCCC[C@H]2O)cn1 (racemic) [Example 199, N-((1S,2R) and (1R,2S)-2-Hydroxy-cyclohexyl)-6-(5-methyl-3-phenyl-isoxazol-4-ylmethoxy)-nicotinamide] | 2.8 | 
40 | Cc1onc(-c2ccccc2)c1COc1ccc(C(=O)N[C@H]2CCCC[C@H]2O)cn1 (single isomer, unassigned) [Example 204, N-((1S,2R)-2-Hydroxy-cyclohexyl)-6-(5-methyl-3-phenyl-isoxazol-4-ylmethoxy)-nicotinamide or N-((1R,2S)-2-Hydroxy-cyclohexyl)-6-(5-methyl-3-phenyl-isoxazol-4-ylmethoxy)-nicotinamide] | 4.4 | 

— patent US8846719B2, “Isoxazolo-pyridine derivatives” (Roche Palo Alto LLC, priority 2007, dated 2014)
